US20160279110A1, “COMPOSITIONS AND METHODS FOR TREATING CANCER” (UNIVERSITY OF ROCHESTER, priority 2015, published 2016)
Where two headings read alike, the source gives them in different places.

Columns and labels:
HeLa cells = test system: HeLa cells; design: reduction in cell viability relative to doxorubicin alone: dose or concentration left out as unconfirmed
Protocol: Viable cells were quantitated using a Cell Titer Glo assay. […] (d) HeLa cells were plated as in b and exposed to one of three treatments 24 h later—the indicated doxonibicin concentration is provided for 16 h either alone (left histogram) or in the presence of 10 μM NMDI-1 (middle histogram). Alternatively, cells were preincubated with 10 M NMDI-1 for 8 h, washed three times and incubated with the indicated concentrations of doxorubicin for 16 h in the absence of NMDI-1. Viable cells were quantitated as in b. Error bars=S.E.M, *=P<0.05 relative to doxorubicin alone treatment using the Student's t-test. n=4 biological replicates.
Cells were plated in white opaque 96-well plates using multichannel pipettors for accuracy and treated as described in the figure legends. CellTiter-Glo luminescent assays (Promega) were performed according to manufacturer's directions. Data were collected using a SpectraMax M2 plate reader.
First, HeLa cells were challenged with various concentrations of doxorubicin alone. Second, cells were continuously co-incubated for 16 h with doxorubicin and NMDI-1. Third, a transient pulse of NMDI-1 was applied for 8 h, cells were washed to remove NMDI-1, and doxorubicin was then applied.

NMD [1] = assay: NMD reporter mRNA levels (β-Gl Ter, GPx1 Ter) by RT-qPCR in HeLa cells exposed to NMDI-1; assay type: cell-based, human
Protocol: Norm encodes a PTCfree version of GPx1 mRNA, whereas Ter encodes mRNA harboring a PTC at codon 46. Cells were re-plated 16 h after transfection at equivalent densities and exposed 24 h later to the indicated concentration of NMDI-1 or, as a positive control for NMD inhibition, cycloheximide (CHX). The levels of β-Gl reporter mRNAs were normalized to the level of the MUP reference mRNA, and the normalized levels of β-Gl Ter mRNA are presented as a percentage of the normalized level of β-Gl Norm mRNA. FIG. 16b is essentially as in a, except GPx1Ter mRNA was analyzed. FIG. 16c is essentially as in b, except MCF7 cells were used. FIG. 16d is essentially as in b, except MCF7 cells were used.
Cells were homogenized, and RNA was purified using RNeasy mini kits (Qiagen). To ensure linearity of both reverse transcription (RT) and qPCR analyses, 17 standard concentrations were constructed using two-fold serial dilutions of total-cell RNA, beginning with 2 μg. Experimental sample input was 200 ng of RNA. RT was conducted using Superscript III (Invitrogen) according to manufacturer's directions and 100 ng of random hexamer (Invitrogen) in a 20 μl reaction volume. Thermal cycling was as follows: 25° C. for 5 min; 42° C. for 60 min; 50° C. for 60 min; and 75° C. for 10 min. Reactions were diluted to a final volume of 80 μl with water and used for qPCR.
qPCR was conducted using FAST SYBR green master mix (ABI; Foster City, Calif.) according to manufacturer's directions. Cycling was done using a 7500 FAST Real Time machine (ABI) with default conditions, and thermal denaturation curves were generated for each run. Primer sequences were as follows, with mRNA primers sets containing at least one primer spanning an exon-exon junction, and pre-mRNA primer sets containing at least one primer that hybridizes to intronic sequences. Primers for Gl mRNA, GPx1 mRNA and MUP mRNA were described in Kurosaki et al.
Therefore, a small-molecule inhibitor of NMD, NMDI-1 (FIG. 8c), that interferes with the interaction between UPF1 and SMG5 was utilized. Application of NMDI-1 and the consequential attenuation of NMD may more fully replicate the complete inhibition of NMD mediated by the UPF1 CP generation explored here as well as UPF1 dephosphorylation and the generation of additional UPF1 CPs seen with doxorubicin (FIG. 1c).

NMD [2] = assay: NMD reporter mRNA levels by RT-qPCR in MCF7 cells exposed to NMDI-1; assay type: cell-based, human
[3] = NMDI-1 at a concentration of 10

Cc1c2ccnc(Cl)c2c(C)c2c1[nH]c1ncccc12 [NMDI-1]
cell viability at sub-lethal doxorubicin (HeLa cells; 0.5 μM doxorubicin, doxorubicin alone, co-treatment or pre-treatment with NMDI-1): none of the treatments significantly affected viability | reduction in cell viability relative to doxorubicin alone (HeLa cells; NMDI-1 pulse 8 h, washed, then doxorubicin 16 h): ~2.5 fold | cell viability relative to doxorubicin treatment alone (HeLa cells; continuous co-incubation 16 h with doxorubicin and NMDI-1): statistically significant decreases in cell viability | inhibition of NMD in HeLa cells (NMD [1]): effective in HeLa cells | raising the level of PTC-bearing glutathione peroxidase 1 (GPx1) mRNA (NMD [1]; [3]): ~1.6 fold | raising the level of β-Gl Ter mRNA (NMD [1]; [3]): ~3.8 fold | inhibition of NMD in HeLa cells (NMD [1]; listed as NMD-1): potent inhibitor of NMD | effect on NMD in MCF7 cells (NMD [2]): no effect
